This is an account of results in patent US20100323972A1, “NON-IMMUNOSUPPRESSIVE CYCLOSPORIN FOR THE TREATMENT OF MUSCULAR DYSTROPHY” (priority 2008, published 2010).

Entries after “also recorded” stand apart in the source; their conditions may differ.

The subject of assay [1] is scgd−/− mice. The assay is described as follows: Muscle weight-to-tibia length ratios (pseudo-hypertrophy) in treated scgd−/− mice. It is filed as in vivo. The procedure:
(§1) Different dissected muscles, gastrocnemius, quadriceps, tibialis anterior and heart muscles, were weighed and muscle weight (MW)-to-tibia length (TL) ratios (MW/TL) were determined. Results in FIG. 2(a) and FIG. 2(c) are presented as means±SEM (standard error of the means). A one-way ANOVA was used to compare means among 3 or more independent groups. A Newman-Keuls post hoc test was applied whenever multiple comparisons were conducted using InStat 3.0 (GraphPad software from Science Inc.). Values were considered significant when p<0.05.
In response to the numerous degeneration/regeneration cycles, scgd—/− mice initially presented with hypertrophic skeletal muscles as are seen in subjects suffering from LGMD. […] Reduction of skeletal muscular hypertrophy was about 1.3 fold in gastrocnemius (Gastroc.), quadriceps (Quad.) and tibialis anterior (TA) and about 1.2 fold in heart muscle (Heart) of D-[MeAla]^3-[EtVal]^4-CsA-treated scgd−/− mice compared to vehicle-treated animals.

For assay [2], the system named is scgd−/− mice. The assay is described as follows: Hematoxylin- and eosin-stained histological sections of quadriceps. It is filed as in vivo. The settings on record: 50 mg/kg/day subcutaneous.
Description: FIG. 2(b) represents reduction of muscle pathology after administration of D-[MeAla]^3-[EtVal]^4-CsA in Scgd−/− mice observed in representative hematoxylin- and eosin-stained sections of quadriceps from wild type (Wt) mice and scgd−/− mice treated with D-[MeAla]^3-[EtVal]^4-CsA. Corresponding vehicle controls are also shown.
as §1
Reduced pathology in the scgd−/− mice treated with D-[MeAla]^3-[EtVal]^4-CsA was also observed in histological slides of quadriceps (FIG. 2(b)).

Assay [3] relates to scgd−/− mice. The assay can be described thus: Percentage fibrosis in muscles (hydroxyproline content / trichrome-stained sections). It is filed as in vivo. The note with it: trichrome-stained sections of diaphragm, tibialis anterior, gastrocnemius, quadriceps. The text has this:
FIG. 2(c) represents reduction of muscle pathology after administration of D-[MeAla]^3-[EtVal]^4-CsA in scgd−/− mice as assessed by quantitation of fibrotic areas in trichrome-stained sections from diaphragm (Diaph.), tibialis anterior (TA), gastrocnemius (Gastroc.), quadriceps (Quad). Assessed were sections from wild type (Wt) mice treated with either vehicle (white bar) or D-[MeAla]^3-[EtVal]^4-CsA (black bar) and from scgd−/− mice treated with either vehicle (gray bar or second to last bar in group) or D-[MeAla]^3-[EtVal]^4-CsA (dotted bar or last bar of group).
Different dissected muscles, gastrocnemius, quadriceps, tibialis anterior and heart muscles, were weighed and muscle weight (MW)-to-tibia length (TL) ratios (MW/TL) were determined. Results in FIG. 2(a) and FIG. 2(c) are presented as means±SEM (standard error of the means). A one-way ANOVA was used to compare means among 3 or more independent groups. […]
Percentage fibrosis was assessed by means of a biochemical assay that quantified hydroxyproline content (Parsons et al., Am. J. Pathol., 2006, 168:1975-1985) in diaphragm (Diaph.), tibialis anterior (TA), gastrocnemius (Gastroc.) and quadriceps (Quad) muscles from wild type and scgd−/− mice treated or not treated with D-[MeAla]^3-[EtVal]^4-CsA.

Assay [4] has as its system scgd−/− mice. The assay can be described thus: Quantitation of the distribution of fiber areas in skeletal muscles. It is filed as in vivo. The settings on record: 50 mg/kg/day subcutaneous for 6 weeks; for Fiber area distribution / heterogeneity: 50 mg/kg/day. From the text:
FIG. 3(a) represents reduction of fiber area heterogeneity in muscle from scgd−/− mice after the administration of D-[MeAla]^3-[EtVal]^4-CsA as assessed by quantitation of the distribution of fiber areas in tibialis anterior (muscle). The study included wild type (Wt) mice treated with either vehicle (white bar) or D-[MeAla]^3-[EtVal]^4-CsA (black bar) and scgd−/− mice treated with either vehicle (gray bar or second to last bar in group) or D-[MeAla]^3-[EtVal]^4-CsA (dotted bar or last bar of group).
FIG. 3(b) represents reduction of fiber area heterogeneity in muscle from scgd−/− mice after the administration of D-[MeAla]^3-[EtVal]^4-CsA as assessed by quantitation of the distribution of fiber areas in gastrocnemius. Included in the study were wild type (Wt) mice treated with either vehicle (white bar) or D-[MeAla]^3-[EtVal]^4-CsA (black bar) and scgd−/− mice treated with either vehicle (gray bar or second to last bar in group) or D-[MeAla]^3-[EtVal]^4-CsA (dotted bar or last bar of group).
FIG. 3(c) represents reduction of fiber area heterogeneity in muscle from scgd−/− mice after the administration of D-[MeAla]^3-[EtVal]^4-CsA as assessed by quantitation of the distribution of fiber areas in quadriceps muscle. Measurements were carried out on wild type (Wt) mice treated with either vehicle (white bar) or D-[MeAla]^3-[EtVal]^4-CsA (black bar) and scgd−/− mice treated with either vehicle (gray bar or second to last bar in group) or D-[MeAla]^3-[EtVal]^4-CsA (dotted bar or last bar of group).
Scgd−/− mice were administered subcutaneously with either D-[MeAla]^3-[EtVal]^4-CsA at a dose of 50 mg/kg/day or vehicle for 6 weeks. […] The administration of the non-immunosuppressive D-[MeAla]^3-[EtVal]^4-CsA to scgd−/− mice reduced the regeneration rate of the fibers and normalized partially the distribution of small and large fibers.

A further assay deals with mouse model of Duchenne. The settings on record: inhibition of calcineurin; cited from earlier work.

Consider “[D-MeAla]^3-[EtVal]^4-CsA [D-[MeAla]^3-[EtVal]^4-CsA]”, for which the “Reduction of skeletal muscular hypertrophy (MW/TL) compared to vehicle-treated animals” value in the assay on scgd−/− mice [1] (gastrocnemius, 50 mg/kg/day subcutaneous, 4 to 10 weeks of age) was “about 1.3 fold”; in the assay on scgd−/− mice [1] (quadriceps, 50 mg/kg/day subcutaneous, 4 to 10 weeks of age) it was “about 1.3 fold”; with scgd−/− mice [1] (tibialis anterior, 50 mg/kg/day subcutaneous, 4 to 10 weeks of age) it was “about 1.3 fold”. For the same substance, the “Effect on disease-associated increase in muscle weight (FIG. 2(a))” value with scgd−/− mice [1] (gastrocnemius, quadriceps, tibialis anterior, heart) was “prevents an increase in muscle weight”. In the assay with scgd−/− mice [1] (heart muscle, 50 mg/kg/day subcutaneous, 4 to 10 weeks of age), the “Reduction of hypertrophy (MW/TL) compared to vehicle-treated animals” value is given as “about 1.2 fold”. The “Myofiber organization and fiber area distributions in histological slides” value with scgd−/− mice [2] was “Improvement in myofiber organization and normalization of fiber area distributions”. Moreover, the “Effect on fibrotic areas (FIG. 2(c))” value in the assay on scgd−/− mice [3] is “reduced fibrosis”. Also, the “Fiber area distribution / heterogeneity” value in the assay with scgd−/− mice [4] (gastrocnemius), in the assay with scgd−/− mice [4] (quadriceps) and in the assay with scgd−/− mice [4] (tibialis anterior) was “normalized fiber area heterogeneity; also recorded: partially normalized” each time. In addition, in the assay on scgd−/− mice [4] (three skeletal muscles), the “Population of small fibers compared to vehicle-treated scgd−/− mice” value is listed as “Less small fibers”.

On to cyclosporin A [CsA], for which the “Effect on muscle pathology” value in the assay with mouse model of Duchenne was “deleterious”.
